Laboratory results reported in ChEMBL document CHEMBL2177032, “Shooting for selective druglike G-quadruplex binders: evidence for telomeric DNA damage and tumor cell death” (2012).
One block for each molecule: values may come before it. Active and inactive are the calls of the source. The rule behind the calls is not given here.

Assays:
Nucleic Acid [1] = experiment: Binding affinity to d(TGGGGT) quadruplex DNA by NMR analysis; type: nucleic-acid assay
Nucleic Acid [2] = experiment: Binding affinity to d(TGGGGT) quadruplex DNA by chemical shift perturbation method; type: nucleic-acid assay
Nucleic Acid [3] = experiment: Binding affinity to d(TGGGGT) quadruplex DNA at compound/DNA ratio 4:1 by isothermal titration calorimetry analysis; type: nucleic-acid assay
HeLa [4] = experiment: Cell cycle arrest in human HeLa cells assessed as accumulation at G0-G1 phase at 3.5 uM after 96 hrs by flow cytometry (reference value: 67%); type: functional
HeLa [5] = experiment: Cell cycle arrest in human HeLa cells assessed as accumulation at sub-G1 phase at 3.5 uM after 24 hrs by flow cytometry (reference value: 3%); type: functional
HeLa [6] = experiment: Cell cycle arrest in human HeLa cells assessed as accumulation at G0-G1 phase at 3.5 uM after 24 hrs by flow cytometry (reference value: 57%); type: functional
HeLa [7] = experiment: Cell cycle arrest in human HeLa cells assessed as accumulation at G0-G1 phase at 3.5 uM after 120 hrs by flow cytometry (reference value: 51%); type: functional
BJ [8] = experiment: Induction of telomere damage in human BJ cells expressing hTERT and SV40 early region assessed as gammaH2AX/TRF1 colocalizations at 0.1 to 0.5 uM after 24 hrs by immunofluorescence analysis; type: functional
HeLa [9] = experiment: Cell cycle arrest in human HeLa cells assessed as accumulation at G2/M phase at 3.5 uM after 24 hrs by flow cytometry (reference value: 16%); type: functional
HeLa [10] = experiment: Cell cycle arrest in human HeLa cells assessed as accumulation at G2/M phase at 3.5 uM after 72 hrs by flow cytometry (reference value: 14%); type: functional
HeLa [11] = experiment: Induction of apoptosis in human HeLa cells at 3.5 uM after 24 hrs using Annexin V-FITC vs PI staining by flow cytometry (reference value: 3.8%); type: functional
HeLa [12] = experiment: Cell cycle arrest in human HeLa cells assessed as accumulation at S phase at 3.5 uM after 96 hrs by flow cytometry (reference value: 22%); type: functional
BJ [13] = experiment: Induction of DNA damage in human BJ cells expressing hTERT and SV40 early region at 0.5 uM after 24 hrs by immunofluorescence analysis; type: functional, cell-based
HeLa [14] = experiment: Cell cycle arrest in human HeLa cells assessed as accumulation at G2/M phase at 3.5 uM after 96 hrs by flow cytometry (reference value: 11%); type: functional
BJ [15] = experiment: Induction of DNA damage in human BJ cells expressing hTERT and SV40 early region assessed as damaged foci colocalized with TRF1 at 0.1 to 0.5 uM after 24 hrs by deconvolution microscopy analysis; type: functional, cell-based
HeLa [16] = experiment: Induction of apoptosis in human HeLa cells at 3.5 uM after 72 hrs using Annexin V-FITC vs PI staining by flow cytometry (reference value: 3.9%); type: functional
HeLa [17] = experiment: Cell cycle arrest in human HeLa cells assessed as accumulation at G0-G1 phase at 3.5 uM after 72 hrs by flow cytometry (reference value: 64%); type: functional
HeLa [18] = experiment: Cell cycle arrest in human HeLa cells assessed as accumulation at S phase at 3.5 uM after 24 hrs by flow cytometry (reference value: 27%); type: functional
HeLa [19] = experiment: Cytotoxicity against human HeLa cells assessed as decrease in cell survival; type: functional, cell-based
HeLa [20] = experiment: Induction of apoptosis in human HeLa cells at 3.5 uM after 120 hrs using Annexin V-FITC vs PI staining by flow cytometry (reference value: 8.3%); type: functional
HeLa [21] = experiment: Cell cycle arrest in human HeLa cells assessed as accumulation at sub-G1 phase at 3.5 uM after 96 hrs by flow cytometry (reference value: 6%); type: functional
HeLa [22] = experiment: Cell cycle arrest in human HeLa cells assessed as accumulation at S phase at 3.5 uM after 72 hrs by flow cytometry (reference value: 22%); type: functional
HeLa [23] = experiment: Induction of apoptosis in human HeLa cells at 3.5 uM after 96 hrs using Annexin V-FITC vs PI staining by flow cytometry (reference value: 5.3%); type: functional
HeLa [24] = experiment: Cell cycle arrest in human HeLa cells assessed as accumulation at S phase at 3.5 uM after 120 hrs by flow cytometry (reference value: 31%); type: functional
HeLa [25] = experiment: Cell cycle arrest in human HeLa cells assessed as accumulation at G2/M phase at 3.5 uM after 120 hrs by flow cytometry (reference value: 18%); type: functional
HeLa [26] = experiment: Cell cycle arrest in human HeLa cells assessed as accumulation at sub-G1 phase at 3.5 uM after 120 hrs by flow cytometry (reference value: 14%); type: functional
HeLa [27] = experiment: Cell cycle arrest in human HeLa cells assessed as accumulation at sub-G1 phase at 3.5 uM after 72 hrs by flow cytometry (reference value: 5%); type: functional
Nucleic Acid [28] = experiment: Displacement of distamycin-A from d(TGGGGT) quadruplex DNA at compound/DNA ratio 4:1 by isothermal titration calorimetry analysis; type: nucleic-acid assay

Activity (Nucleic Acid [1]): Active
Compound: CC1CCN(Cc2c(O)ccc3c(=O)c(-c4nc5ccccc5s4)coc23)CC1

Activity (Nucleic Acid [1]): Active
Compound: CC1CCCCN1Cc1c(O)ccc2c(=O)c(-c3nc4ccccc4s3)coc12 (stereo unspecified)

Activity (Nucleic Acid [1]): Active
Compound: CN(C)Cc1c(O)ccc2c(=O)c(-c3nc4ccccc4s3)coc12

Activity (Nucleic Acid [1]): Active
Compound: O=c1c(-c2nc3ccccc3s2)coc2c(CN3CCCCC3)c(O)ccc12

Activity (Nucleic Acid [1]): Active
Compound: CC1CCCN(Cc2c(O)ccc3c(=O)c(-c4nc5ccccc5s4)coc23)C1 (stereo unspecified)

Activity (Nucleic Acid [3]): Active
Activity (Nucleic Acid [1]): Active
Compound: CCN(CC)Cc1c(O)ccc2c(=O)c(-c3nc4ccccc4s3)coc12
Activity (BJ [8]): 50%
Activity (BJ [13]): Active
Activity (BJ [15]): Active

Activity (Nucleic Acid [1]): Active
Compound: CCC1CCCCN1Cc1c(O)ccc2c(=O)c(-c3nc4ccccc4s3)coc12 (stereo unspecified)

Activity (Nucleic Acid [1]): Active
Compound: O=c1c(-c2nc3ccccc3s2)coc2c(CN3CCOCC3)c(O)ccc12

Activity (Nucleic Acid [1]): Active
Compound: O=c1c(-c2nc3ccccc3s2)coc2c(CN3CCCC3)c(O)ccc12

The remaining lines, values behind:

Compound: CCOC(=O)N1CCN(Cc2c(O)ccc3cc(-c4nc5ccccc5s4)c(=O)oc23)CC1
Activity (Nucleic Acid [2]): inactive

Compound: O=c1oc2c(CN(CCO)CCO)c(O)ccc2cc1-c1nc2ccccc2s1
Activity (Nucleic Acid [2]): Active

Compound: CC1CCCC(C)N1Cc1c(O)ccc2c(=O)c(-c3nc4ccccc4s3)c(N)oc12 (stereo unspecified)
Activity (Nucleic Acid [3]): Active
Activity (HeLa [4]): 40%
Activity (HeLa [5]): 5%
Activity (HeLa [6]): 52%
Activity (HeLa [7]): 43%
Activity (BJ [8]): 50%
Activity (HeLa [9]): 20%
Activity (HeLa [10]): 37%
Activity (Nucleic Acid [1]): Active
Activity (HeLa [11]): 4.6%
Activity (HeLa [12]): 28%
Activity (BJ [13]): Active
Activity (HeLa [14]): 32%
Activity (BJ [15]): Active
Activity (HeLa [16]): 7.1%
Activity (HeLa [17]): 40%
Activity (HeLa [18]): 28%
inhibition (HeLa [19]): Dose-dependent effect
Activity (HeLa [20]): 30.6%
Activity (HeLa [21]): 19%
Activity (HeLa [22]): 23%
Activity (HeLa [23]): 13.9%
Activity (HeLa [24]): 26%
Activity (HeLa [25]): 31%
Activity (HeLa [26]): 38%
Activity (HeLa [27]): 12%

Compound: Cn1cc(NC(=O)c2cc(NC(=O)c3cc(NC=O)cn3C)cn2C)cc1C(=O)NCCC(=N)N
Activity (BJ [13]): Active
Activity (BJ [15]): Active

Compound: O=c1c(-c2nc3ccccc3s2)coc2cc(O)ccc12
Activity (Nucleic Acid [1]): inactive

Compound: CC1CCN(Cc2c(O)ccc3c(O)c(-c4nc5ccccc5s4)c(=N)oc23)CC1
Activity (Nucleic Acid [1]): Active

Compound: CCN1CCN(Cc2c(O)ccc3cc(-c4nc5ccccc5s4)c(=O)oc23)CC1
Activity (Nucleic Acid [2]): Active

Compound: Cc1oc2c(CN(C)C)c(O)ccc2c(=O)c1-c1nc2ccccc2s1
Activity (Nucleic Acid [1]): inactive

Compound: CCc1cc2c(=O)c(-c3nc4ccccc4s3)coc2c(CN2CCCC2)c1O
Activity (Nucleic Acid [1]): inactive

Compound: O=c1oc2c(CN3CCN(CCO)CC3)c(O)ccc2cc1-c1nc2ccccc2s1
Activity (Nucleic Acid [3]): Active
Activity (Nucleic Acid [28]): Active

Compound: Nc1oc2c(CN3CCCCCC3)c(O)ccc2c(=O)c1-c1nc2ccccc2s1
Activity (Nucleic Acid [3]): Active
Activity (BJ [8]): 50%
Activity (Nucleic Acid [1]): Active
Activity (BJ [13]): Active
Activity (BJ [15]): Active

Compound: CN1CCN(Cc2c(O)ccc3cc(-c4nc5ccccc5s4)c(=O)oc23)CC1
Activity (Nucleic Acid [2]): Active

Compound: Cc1oc2c(CN3CCCC3)c(O)ccc2c(=O)c1-c1nc2ccccc2s1
Activity (Nucleic Acid [1]): inactive

Compound: CCc1cc2c(=O)c(-c3nc4ccccc4s3)coc2c(CN(CC)CC)c1O
Activity (Nucleic Acid [1]): inactive

Compound: CC1(C)C[C@H]2CN(Cc3c(O)ccc4c(=O)c(-c5nc6ccccc6s5)c(N)oc34)[C@](C)(C2)C1
Activity (Nucleic Acid [1]): inactive

Compound: O=c1oc2c(CN3CCN(c4ccccc4)CC3)c(O)ccc2cc1-c1nc2ccccc2s1
Activity (Nucleic Acid [2]): inactive

Compound: CC1CCCN(Cc2c(O)ccc3c(O)c(-c4nc5ccccc5s4)c(=N)oc23)C1 (stereo unspecified)
Activity (Nucleic Acid [1]): Active
